In patent publication US20100267561A1, “HERBICIDAL PYRIDAZINONE DERIVATIVES” (priority 2007, published 2010):

Legend:
Assay type in all cases: in vivo
[1] = tested on: barnyardgrass (Echinochloa crus-galli); experiment: Test A pre-/postemergence plant response
Outline: (§1)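 Greenhouse pot test: loam–sand soil; pre- and postemergence sprays applied same day; post plants 2–10 cm, 1–2 leaves. Readout ~10 d, visual % injury vs untreated (0 = none, 100 = complete control).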

[2] = tested on: giant foxtail (Setaria faberi); experiment: Test A pre-/postemergence plant response
Outline: as §1

[3] = tested on: pigweed (Amaranthus retroflexus); experiment: Test A pre-/postemergence plant response
Outline: as §1

[4] = tested on: velvetleaf (Abutilon theophrasti); experiment: Test A pre-/postemergence plant response
Outline: as §1

[5] = tested on: wheat (Triticum aestivum); experiment: Test A pre-/postemergence plant response
Outline: as §1

[6] = tested on: large crabgrass (Digitaria sanguinalis); experiment: Test A pre-/postemergence plant response
Outline: as §1

[7] = tested on: morningglory (Ipomoea coccinea); experiment: Test A pre-/postemergence plant response
Outline: as §1

[8] = tested on: barnyardgrass (Echinochloa crus-galli); experiment: Test B flooded paddy test plant response
Outline: (§2)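 Paddy-water application to 2-leaf plants in pots held under 3 cm of flooding; response is a 0–100 visual control rating against controls after 13 to 15 days, and a dash marks a missing result.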

[9] = tested on: umbrella sedge (Cyperus difformis); experiment: Test B flooded paddy test plant response
Outline: as §2

[10] = tested on: ducksalad (Heteranthera limosa); experiment: Test B flooded paddy test plant response
Outline: as §2

[11] = tested on: chickweed (Stellaria media); experiment: Test B postemergence plant response; details: for Chickweed plant response rating: 8 g ai/ha, postemergence, 0-100 scale; for Plant response rating, Chickweed: Postemergence
Outline: (§3)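 Visual injury ratings on a 0–100 scale, where 100 means complete control, were made 13 to 15 days after postemergence treatment of greenhouse-grown plants at the 1- to 4-leaf stage.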

[12] = tested on: winter barley (Hordeum vulgare); experiment: Test B postemergence plant response; details: for Barley plant response rating: 8 g ai/ha, postemergence, 0-100 scale; for Plant response rating, Barley: Postemergence, scale 0 to 100, 0 no effect, 100 complete control
Outline: as §3

[13] = tested on: windgrass (Apera spica-venti); experiment: Test B postemergence plant response; details: for Windgrass plant response rating: 8 g ai/ha, postemergence, 0-100 scale; for Plant response rating, Windgrass: Postemergence
Outline: as §3

[14] = tested on: canarygrass (Phalaris minor); experiment: Test B postemergence plant response; details: for Canarygrass plant response rating: 8 g ai/ha, postemergence, 0-100 scale; for Plant response rating, Canarygrass: Postemergence
Outline: as §3

[15] = Postemergence, 31 g ai/ha, 0 to 100 scale, 0 no effect, 100 complete control
[16] = Postemergence, 125 g ai/ha, 0 to 100 scale, 0 no effect, 100 complete control
[17] = Preemergence, 31 g ai/ha, 0 to 100 scale, 0 is no effect, 100 is complete control
[18] = Preemergence, 125 g ai/ha, 0 to 100 scale (0 no effect, 100 complete control)
[19] = Flood (flooded paddy test), 62 g ai/ha, scale 0 to 100, 0 no effect, 100 complete control
[20] = Flood (flooded paddy test), 125 g ai/ha, scale 0 to 100, 0 no effect, 100 complete control
[21] = Flood (flooded paddy test), 250 g ai/ha, scale 0 to 100, 0 no effect, 100 complete control
[22] = Flood, 31 g ai/ha, scale 0 to 100
[23] = 31 g ai/ha, scale 0 to 100, 0 no effect, 100 complete control
[24] = 62 g ai/ha, scale 0 to 100, 0 no effect, 100 complete control

Cc1cc(-c2ccc(C(F)(F)F)c(F)c2)nn1-c1c(O)c(C(F)(F)F)nn(C)c1=O [Compound 44]
Plant response rating, Barnyardgrass [1, 15]: 100
Plant response rating, Barnyardgrass [1, 16]: 100
Plant response rating, Barnyardgrass [1, 17]: 80
Plant response rating, Barnyardgrass [1, 18]: 100
Plant response rating, Foxtail, Giant [2, 15]: 90
Plant response rating, Foxtail, Giant [2, 16]: 100
Plant response rating, Foxtail, Giant [2, 17]: 80
Plant response rating, Foxtail, Giant [2, 18]: 100
Plant response rating, Pigweed [3, 15]: 0
Plant response rating, Pigweed [3, 16]: 0
Plant response rating, Pigweed [3, 17]: 0
Plant response rating, Pigweed [3, 18]: 0
Plant response rating, Velvetleaf [4, 15]: 0
Plant response rating, Velvetleaf [4, 16]: 0
Plant response rating, Velvetleaf [4, 17]: 0
Plant response rating, Velvetleaf [4, 18]: 0
Plant response rating, Wheat [5, 15]: 70
Plant response rating, Wheat [5, 16]: 80
Plant response rating, Wheat [5, 17]: 40
Plant response rating, Wheat [5, 18]: 80
Plant response rating, Crabgrass, Large [6, 15]: 50
Plant response rating, Crabgrass, Large [6, 16]: 100
Plant response rating, Crabgrass, Large [6, 17]: 20
Plant response rating, Crabgrass, Large [6, 18]: 100
Plant response rating, Morningglory [7, 15]: 0
Plant response rating, Morningglory [7, 16]: 0
Plant response rating, Morningglory [7, 17]: 0
Plant response rating, Morningglory [7, 18]: 0
Plant response rating, Barnyardgrass [8, 19]: 0
Plant response rating, Barnyardgrass [8, 20]: 30
Plant response rating, Barnyardgrass [8, 21]: 50
Plant response rating, Barnyardgrass [8, 22]: 0
Plant response rating, Sedge, Umbrella [9, 19]: 0
Plant response rating, Sedge, Umbrella [9, 20]: 20
Plant response rating, Sedge, Umbrella [9, 21]: 30
Plant response rating, Sedge, Umbrella [9, 22]: 0
Plant response rating, Ducksalad [10, 19]: 0
Plant response rating, Ducksalad [10, 20]: 70
Plant response rating, Ducksalad [10, 21]: 70
Chickweed plant response rating [11]: 0
Plant response rating, Chickweed ([11]; 16 g ai/ha, scale 0 to 100): 0
Plant response rating, Chickweed [11, 23]: 0
Plant response rating, Chickweed [11, 24]: 0
Barley plant response rating [12]: 15
Plant response rating, Barley ([12]; 16 g ai/ha): 20
Plant response rating, Barley ([12]; 31 g ai/ha): 20
Plant response rating, Barley ([12]; 62 g ai/ha): 20
Windgrass plant response rating [13]: 85
Plant response rating, Windgrass ([13]; 16 g ai/ha, scale 0 to 100): 85
Plant response rating, Windgrass [13, 24]: 100
Canarygrass plant response rating [14]: 50
Plant response rating, Canarygrass ([14]; 16 g ai/ha, scale 0 to 100): 90
Plant response rating, Canarygrass [14, 23]: 90

Cn1ncc(O)c(-n2nc(-c3ccc(Cl)cc3)cc2C2CC2)c1=O [Compound 45]
Plant response rating, Barnyardgrass [1, 15]: 80
Plant response rating, Barnyardgrass [1, 16]: 100
Plant response rating, Barnyardgrass [1, 17]: 90
Plant response rating, Barnyardgrass [1, 18]: 100
Plant response rating, Foxtail, Giant [2, 15]: 90
Plant response rating, Foxtail, Giant [2, 16]: 100
Plant response rating, Foxtail, Giant [2, 17]: 90
Plant response rating, Foxtail, Giant [2, 18]: 100
Plant response rating, Pigweed [3, 15]: 0
Plant response rating, Pigweed [3, 16]: 0
Plant response rating, Pigweed [3, 17]: 0
Plant response rating, Pigweed [3, 18]: 0
Plant response rating, Velvetleaf [4, 15]: 0
Plant response rating, Velvetleaf [4, 16]: 0
Plant response rating, Velvetleaf [4, 17]: 0
Plant response rating, Velvetleaf [4, 18]: 0
Plant response rating, Wheat [5, 15]: 70
Plant response rating, Wheat [5, 16]: 90
Plant response rating, Wheat [5, 17]: 50
Plant response rating, Wheat [5, 18]: 80
Plant response rating, Crabgrass, Large [6, 15]: 40
Plant response rating, Crabgrass, Large [6, 16]: 100
Plant response rating, Crabgrass, Large [6, 17]: 30
Plant response rating, Crabgrass, Large [6, 18]: 90
Plant response rating, Morningglory [7, 15]: 0
Plant response rating, Morningglory [7, 16]: 0
Plant response rating, Morningglory [7, 17]: 0
Plant response rating, Morningglory [7, 18]: 0
Plant response rating, Barnyardgrass [8, 19]: 20
Plant response rating, Barnyardgrass [8, 20]: 60
Plant response rating, Barnyardgrass [8, 21]: 65
Plant response rating, Barnyardgrass [8, 22]: 20
Plant response rating, Sedge, Umbrella [9, 19]: 0
Plant response rating, Sedge, Umbrella [9, 20]: 0
Plant response rating, Sedge, Umbrella [9, 21]: 65
Plant response rating, Sedge, Umbrella [9, 22]: 0
Plant response rating, Ducksalad [10, 19]: 0
Plant response rating, Ducksalad [10, 20]: 0
Plant response rating, Ducksalad [10, 21]: 75
Plant response rating, Ducksalad [10, 22]: 0
Chickweed plant response rating [11]: 0
Plant response rating, Chickweed ([11]; 16 g ai/ha, scale 0 to 100): 0
Plant response rating, Chickweed ([11]; 31 g ai/ha, scale 0 to 100): 0
Plant response rating, Chickweed [11, 24]: 0
Barley plant response rating [12]: 5
Plant response rating, Barley ([12]; 16 g ai/ha): 5
Plant response rating, Barley ([12]; 31 g ai/ha): 5
Plant response rating, Barley ([12]; 62 g ai/ha): 5
Windgrass plant response rating [13]: 30
Plant response rating, Windgrass ([13]; 16 g ai/ha, scale 0 to 100): 35
Plant response rating, Windgrass ([13]; 31 g ai/ha, scale 0 to 100): 60
Plant response rating, Windgrass [13, 24]: 65
Canarygrass plant response rating [14]: 0
Plant response rating, Canarygrass ([14]; 16 g ai/ha, scale 0 to 100): 0
Plant response rating, Canarygrass ([14]; 31 g ai/ha, scale 0 to 100): 0
Plant response rating, Canarygrass [14, 24]: 0
